We go through 1 compound from patent publication US12522635B2, “Amyloid peptide variants” (Loyola Marymount University, priority 2019, dated 2026).

For one series, the system named is RIN-m cells. The series can be described thus: MTT viability assay, peptide alone or mixed with hIAPP. It is filed as cell-based. Put shortly:
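RIN-m cells were exposed to hIAPP alone, each animal IAPP peptide alone, or hIAPP mixed with an animal IAPP for 46 h at 37° C in RPMI-1640 with 10% FBS. Viability by MTT reduction (2 h), formazan solubilized in SDS/DMF and read at 570 nm, relative to untreated cells as 100%.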

Series [1] can be described thus: AFM of peptide alone (self-aggregation / fibril formation). Type of series: physicochemical. The procedure: Samples labeled with hIAPP contained 40 μM hIAPP. The sample with pramlintide and hIAPP contained a 2:1 molar mixture (80 μM Pramlintide mixed with 40 μM hIAPP). The samples with raccoon IAPP and Pramlintide alone contained 40 μM of the indicated peptides. Each sample was incubated for 40 minutes at 37° C. with shaking; conditions known to promote hIAPP amyloid formation. All scans show raw data with no flattening and are […].
Samples of hIAPP with or without animal IAPP were prepared as described in Example 1 and were then incubated with shaking at 37° C. for 40 minutes. After this incubation, 17 μL of each sample was deposited onto freshly cleaved mica. Samples were incubated for 5 minutes at room temperature before washing with 200 μL sterile water. After drying, the samples were scanned using an MFP-3D atomic force microscope (Asylum Research) set on A/C mode and a 240 m silicon cantilever (Olympus).
Many of the animal IAPP variants are known to likewise form fibrils and yield amyloid-plaques when scanned via AFM. […] This is in spite of the fact that all of these IAPP peptides (except polar bear IAPP) are known to aggregate and form fibrils themselves under these or similar conditions

With `CC[C@H](C)[C@H](NC(=O)[C@@H]1CCCN1C(=O)CNC(=O)[C@H](Cc1ccccc1)NC(=O)[C@H](CC(N)=O)NC(=O)[C@H](CC(N)=O)NC(=O)[C@H](CO)NC(=O)[C@H](CO)NC(=O)[C@H](Cc1c[nH]cn1)NC(=O)[C@@H](NC(=O)[C@H](CC(C)C)NC(=O)[C@H](Cc1ccccc1)NC(=O)[C@H](CC(N)=O)NC(=O)[C@H](C)NC(=O)[C@H](CC(C)C)NC(=O)[C@H](CCCNC(=N)N)NC(=O)[C@H](CCC(N)=O)NC(=O)[C@@H](NC(=O)[C@H](C)NC(=O)[C@@H]1CSSC[C@H](NC(=O)[C@@H](N)CCCCN)C(=O)N[C@@H](CC(N)=O)C(=O)N[C@@H]([C@@H](C)O)C(=O)N[C@@H](C)C(=O)N[C@@H]([C@@H](C)O)C(=O)N1)[C@@H](C)O)C(C)C)C(=O)N[C@@H](CC(C)C)C(=O)N1CCC[C@H]1C(=O)N1CCC[C@H]1C(=O)N[C@H](C(=O)N[C@@H](CC(N)=O)C(=O)N[C@H](C(=O)NCC(=O)N[C@@H](CO)C(=O)N[C@@H](CC(N)=O)C(=O)N[C@H](C(=O)N[C@@H](Cc1ccc(O)cc1)C(N)=O)[C@@H](C)O)C(C)C)[C@@H](C)O` [pramlintide, reference compound], the “rescue / protection of cells from hIAPP toxicity (words)” value in the series with RIN-m cells (hIAPP mixed with peptide 1:1, MTT assay) is reported as “no ability to protect cells from the toxic effects of hIAPP”. The “toxicity of peptide to cells” value in the series with RIN-m cells (peptide alone, MTT assay, pancreatic (RIN-m) cells) is “toxic to the cells”. Besides, the “aggregation propensity relative to comparator” value in series [1] (comparison of pramlintide with the IAPP peptides) is “more amyloidogenic than the present IAPP peptides”. Further, the “aggregation / fibril formation of peptide alone, AFM” value in series [1] (peptide alone, incubated 40 minutes at 37° C. with shaking) was “formed amyloid fibers”.
